In patent publication US9493524B2, “Methods for treatment of stroke or cerebrovascular accidents using an ETB receptor agonist” (MIDWESTERN UNIVERSITY, priority 2007, dated 2016):
Numbered stars: 1 amine (or outer) side, 2 acyl side, 3 side chain; on linkers, the order of the positions; unused ones are H or OH. Peptide text beside a SMILES is read from it. Suc = O=C(CCC(=O)[*:2])[*:1]

Experiments:
Type in all cases: in vivo, Sprague-Dawley rats
[1] = tested on: urethane anesthetized rat; assay: Cerebral blood perfusion by Laser Doppler Flowmetry; settings: BQ788 1 μg/kg
Protocol: (§1) Male Sprague-Dawley rats weighing 323±4 grams (g) were anesthetized with urethane (ethyl carbamate, Sigma Aldrich, St. Louis, Mo.) dissolved in isotonic saline (0.9% NaCl, Hospira, Inc., Lake Forest, Ill.). The rats were administered a dose of 0.15 g per 100 g body weight via intraperitoneal (i.p.) injection.
Cerebral Perfusion: A burr hole was drilled into the rat skull about 2 millimeters (mm) to the left of midline. Cerebrovascular perfusion was measured via a fiber optic probe (PF407) applied to the surface of the rat brain. The probe was connected to a Periflux PF2b 4000 Laser Doppler Flowmetry unit (Perimed, Stockholm, Sweden).
(§2) The rats were randomly selected for various studies. Following surgery the rats were allowed to stabilize for 30 minutes and a 15 minutes baseline recording of all parameters (blood pressure, heart rate, cerebral blood flow, and renal blood flow) was obtained prior to the administration of the pretreatment followed by IRL-1620 (Suc-[Glu 9, Ala 11,15], American Peptide Co, Inc., Sunnyville, Calif.) or ET-1 (Ala 1,3,11,15, RBI Sigma, Natick, Mass.). BQ-788, a selective endothelin B antagonist, is the sodium salt of N-cis-2,6-dimethylpiperidinocarbonyl-L-gamma-methylleucyl-D-1-methoxycarbonyl triptophanyl-DNIe (see Proc. Natl. Acad. Sci. USA, 91, pp. 4892-4896 (1994)) BMS is BMS 182, 874, which is a selective endothelin A antagonist having a structure
(§3) Group 1: Animals (n=4) were pretreated with saline 15 minutes (min) prior to administration of IRL-1620 (5 μg/kg, i.v.).
(§4) Group 2: Animals (n=4) were pretreated with BMS (5 mg/kg, i.v.) 15 min prior to administration of IRL-1620 (5 μg/kg, i.v.).
(§5) Group 3: Animals (n=4) were pretreated with BMS (15 mg/kg, i.v.) 15 min prior to administration of IRL-1620 (5 μg/kg, i.v.).
(§6) Group 4: Animals (n=4) were pretreated with BQ788 (1 μg/kg, i.v.) 15 min prior to administration of IRL-1620 (5 μg/kg, i.v.).
(§7) Group 1: Animals (n=4) were pretreated with saline 15 min prior to administration of ET-1 (0.75 μg/kg, i.v.).
(§8) Group 2: Animals (n=4) were pretreated with BMS (5 mg/kg, i.v.) 15 min prior to administration of ET-1 (0.75 μg/kg, i.v.).
(§9) Group 3: Animals (n=4) were pretreated with BMS (15 mg/kg, i.v.) 15 min prior to administration of ET-1 (0.75 μg/kg, i.v.).
(§10) Group 4: Animals (n=4) were pretreated with BQ788 (1 μg/kg, i.v.) 15 min prior to administration of ET-1 (0.75 μg/kg, i.v.).
(§11) Blood pressure, heart rate, cerebral blood perfusion, and renal blood perfusion all were recorded for 2 hours following the final injection. Blood gases were analyzed prior to administration of any drugs, and at 60 and 120 min following administration of IRL-1620 or ET-1. At the end of each experiment, the animals were euthanized with an overdose of urethane i.v. In the figures, all data values are presented as mean±SEM. One-sample t-tests and one-way ANOVAs were used to test the differences within and between the groups. A P value of P<0.05 was considered significant.

[2] = tested on: urethane anesthetized rat; assay: Renal blood perfusion by Laser Doppler Flowmetry; settings: BMS 5 and 15 mg/kg, i.v., BQ788 1 μg/kg
Protocol: as §1
Renal Perfusion: The right kidney was dissected retroperitoneally. Renal perfusion was measured via a fiber optic probe (PF408) applied to the surface of the rat kidney. The probe was connected to a Periflux PF2b 4000 Laser Doppler Flowmetry unit (Perimed, Stockholm, Sweden).
as §2, §3, §4, §5, §6, §7, §8, §9, §10, §11

[3] = tested on: urethane anesthetized rat; assay: Blood pressure / mean arterial pressure recording; settings: BMS 5 and 15 mg/kg, i.v., BQ788 1 μg/kg
Protocol: as §1
(§12) Blood Pressure and Heart Rate: The femoral vein and artery were cannulated. The arterial cannula was connected to a Gould P23 ID pressure transducer for recording the blood pressure on a Grass P7D polygraph through a 7PI preamplifier. The heart rate was recorded through a 7P4B Grass tachograph, triggered from blood pressure signals. Drugs were administered via the venous cannula.
as §2, §3, §4, §5, §6, §7, §8, §9, §10, §11

[4] = tested on: urethane anesthetized rat; assay: Heart rate recording; settings: IRL-1620 5 μg/kg, i.v.; for heart rate: 1 μg/kg BQ788 pretreatment, mean±SEM, in bpm (unit assumed)
Protocol: as §1, §12, §2, §3, §4, §5
Group 4: Animals (n=4) were pretreated with BQ788 (1 μg/kg, i.v.) 15 min prior to administration of IRL-1620 (5 μg/kg, i.v.). […]
as §11

[5] = tested on: urethane anesthetized rat; assay: Arterial blood gas analysis; settings: IRL-1620 5 μg/kg, i.v., ET-1 0.75 μg/kg
Protocol: as §1
Blood Gas Analysis: Arterial blood gases were monitored to determine the effects on pH, pCO2, and pO2. Blood was drawn from the arteriole cannula and analyzed using a GEM Premier 3000 unit (Instrument Laboratory, Lexington, Mass.).
as §11

[6] = time 0 min (prior to any drugs)

CCCC[C@@H](NC(=O)[C@@H](Cc1cn(C(=O)OC)c2ccccc12)NC(=O)[C@H](CC(C)(C)C)NC(=O)N1[C@H](C)CCC[C@@H]1C)C(=O)O [BQ788, N-cis-2,6-dimethylpiperidinocarbonyl-L-gamma-methylleucyl-D-1-methoxycarbonyl triptophanyl-DNIe] was tested, and the “effect of pretreatment on the effect of ET-1 on cerebral blood flow” value ([1]; BMS 5 and 15 mg/kg, i.v., ET-1 0.75 μg/kg, FIG. 7) was “no significant change”, the “effect of pretreatment on the effect of IRL-1620 on cerebral blood flow” value ([1]; i.v. 15 min prior to IRL-1620 5 μg/kg, FIG. 6) was “effectively blocked” and the “effect of pretreatment on the effect of ET-1 on renal blood flow” value ([2]; ET-1 0.75 μg/kg, FIG. 10) was “No pretreatment significantly altered”. The “effect of pretreatment on the effect of IRL-1620 on renal blood flow” value ([2]; IRL-1620 5 μg/kg, FIG. 9) was “effectively blocked”, the “effect of pretreatment on the effect of ET-1 on mean arterial pressure” value ([3]; ET-1 0.75 μg/kg, FIG. 13) was “failed to alter” and the “effect of pretreatment on the effect of IRL-1620 on mean arterial pressure” value ([3]; IRL-1620 5 μg/kg, FIG. 12) was “effectively blocked”. The heart rate ([4]; time 0 min) was 344 ± 5, the heart rate ([4]; time 1 min) was 350 ± 6 and the heart rate ([4]; time 5 min) was 345 ± 4. For the same compound, the heart rate ([4]; time 10 min) was 345 ± 4, the heart rate ([4]; time 15 min) was 347 ± 3 and the heart rate ([4]; time 30 min) was 347 ± 4. For the same compound, the heart rate ([4]; time 45 min) was 350 ± 6, the heart rate ([4]; time 60 min) was 351 ± 9 and the heart rate ([4]; time 90 min) was 351 ± 13. For the same compound, the heart rate ([4]; time 120 min) was 353 ± 13 and the “effect of pretreatment on the effect of IRL-1620 on heart rate (Table 1)” value ([4]; BMS 5 and 15 mg/kg, BQ788) was “effectively blocked”.

In the case of CC[C@H](C)[C@H](NC(=O)[C@H](CC(=O)O)NC(=O)[C@H](CC(C)C)NC(=O)[C@H](Cc1c[nH]cn1)NC(=O)[C@H](C)NC(=O)[C@H](Cc1ccccc1)NC(=O)[C@H](Cc1ccc(O)cc1)NC(=O)[C@@H](NC(=O)[C@H](C)NC(=O)[C@H](CCC(=O)O)NC(=O)[C@H](CCC(=O)O)NC(=O)[C@H](CC(=O)O)NC(=O)CCC(=O)O)C(C)C)C(=O)N[C@H](C(=O)N[C@@H](Cc1c[nH]c2ccccc12)C(=O)O)[C@@H](C)CC [IRL-1620, N-Succinyl-[Glu^9, Ala^11,15]-Endothelin 1 fragment 8-21] (Suc-DEEAVYFAHLDIIW-OH), the “effect on arterial blood gases (text to Table 2)” value [5] is reported as “Neither IRL-1620 nor ET-1 significantly affected blood gases”, the “arterial blood pCO2” value [5, 6] is reported as 42 ± 2 and the “arterial blood pH” value [5, 6] is reported as 7.32 ± 0.01. For the same compound, the “arterial blood pO2” value [5, 6] was 103 ± 3, the “arterial blood pCO2” value ([5]; time 60 min) was 46 ± 6 and the “arterial blood pH” value ([5]; time 60 min) was 7.27 ± 0.01. The “arterial blood pO2” value ([5]; time 60 min) was 99 ± 9, the “arterial blood pCO2” value ([5]; time 120 min) was 32 ± 3 and the “arterial blood pH” value ([5]; time 120 min) was 7.29 ± 0.01. The “arterial blood pO2” value ([5]; time 120 min) was 113 ± 6.
